The source of these data is US20220323406A1, “METHODS AND COMPOSITIONS FOR DIFFERENTIATING STEM CELLS” (Massachusetts Institute of Technology, priority 2019, published 2022).

What all share (settings): primary screen
Test [1] relates to ENR+CD organoids (ISC to Paneth cell differentiation). The experiment in a line: Primary screen: basal (non-stimulated) lysozyme secretion LYZ.NS, 2.5-D 384-well ENR+CD organoid differentiation. The test is classed as cell-based, mouse. From the text:
(§1) High-throughput screening.

For test [2] the test system is unchanged. The experiment in a line: Primary screen: CCh-stimulated lysozyme secretion LYZ.S, 2.5-D 384-well ENR+CD organoid differentiation. Type of test: cell-based, mouse.
Excerpt: as §1

For a further test, the system named is ENR+CD organoids. In words: Primary screen: ATP (CellTiter-Glo 3D, CTG) cell number/viability, 2.5-D 384-well ENR+CD organoids.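 Note: compounds given at plating and again on day 3 over a 6-day differentiation from ENR+CV stem-cell-enriched precursors, ATP measured on day 6, plate median as control.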

As to HA14-1, the “Dose.FC.LYZ.NS (log2 fold change)” value in test [1] (dose 0.08 uM) is recorded as 0.121; in test [1] (dose 0.40 uM), 0.137; in test [1] (dose 2.00 uM), 0.154; in test [1] (dose 10.00 uM) it was 0.132. Further, the “Z.LYZ.NS (standard z score)” value in test [1] (dose 0.08 uM) stood at 1.052; in test [1] (dose 0.40 uM) it was 1.195; in test [1] (dose 2.00 uM), 1.345; in test [1] (dose 10.00 uM), 1.151. Moreover, the “Dose.FC.LYZ.S (log2 fold change)” value in test [2] (dose 0.08 uM) is given as 0.190; in test [2] (dose 0.40 uM) it was 0.316; in test [2] (dose 2.00 uM), 0.170; in test [2] (dose 10.00 uM), 0.149. The “Dose.FC.CTG (log2 fold change)” value was 0.534 with ENR+CD organoids (dose 0.08 uM), 0.526 with ENR+CD organoids (dose 0.40 uM), 0.554 in the test with ENR+CD organoids (dose 2.00 uM) and 0.388 in the test on ENR+CD organoids (dose 10.00 uM). The “Z.CTG (standard z score)” value with ENR+CD organoids (dose 0.08 uM) amounted to 1.276; in the test on ENR+CD organoids (dose 0.40 uM), 1.255; with ENR+CD organoids (dose 2.00 uM) it was 1.323; in the test on ENR+CD organoids (dose 10.00 uM), 0.926.
Turning to `COCC[n+]1c2c(n(Cc3cnccn3)c1C)C(=O)c1ccccc1C2=O.[Br-]` [YM155 (Sepantronium Bromide)], the Dose.FC.LYZ.NS in test [1] (dose 0.08 uM) is given as 0.114 log2 fold change; in test [1] (dose 0.40 uM), −0.031 log2 fold change; in test [1] (dose 2.00 uM), −0.082 log2 fold change; in test [1] (dose 10.00 uM) it was −0.096 log2 fold change. The “Z.LYZ.NS (standard z score)” value in test [1] (dose 0.08 uM) is recorded as 0.995; in test [1] (dose 0.40 uM), −0.266; in test [1] (dose 2.00 uM) it was −0.714; in test [1] (dose 10.00 uM) it was −0.839. Also, the Dose.FC.LYZ.S is recorded as 0.172 log2 fold change in test [2] (dose 0.08 uM), −0.039 log2 fold change in test [2] (dose 0.40 uM), −0.137 log2 fold change in test [2] (dose 2.00 uM) and −0.210 log2 fold change in test [2] (dose 10.00 uM). Moreover, the Dose.FC.CTG is given as 0.222 log2 fold change with ENR+CD organoids (dose 0.08 uM), −0.083 log2 fold change in the test with ENR+CD organoids (dose 0.40 uM), −0.460 log2 fold change with ENR+CD organoids (dose 2.00 uM) and −0.970 log2 fold change in the test on ENR+CD organoids (dose 10.00 uM). Besides, the “Z.CTG (standard z score)” value with ENR+CD organoids (dose 0.08 uM) is reported as 0.531; in the test on ENR+CD organoids (dose 0.40 uM) it was −0.198; in the test with ENR+CD organoids (dose 2.00 uM) it was −1.100; with ENR+CD organoids (dose 10.00 uM) it was −2.316.
As to `O=C(Nc1cc(C(F)(F)F)cc(C(F)(F)F)c1)c1cc(Cl)ccc1O` [IMD 0354], the “Dose.FC.LYZ.NS (log2 fold change)” value in test [1] (dose 0.08 uM) was 0.004; in test [1] (dose 0.40 uM) it was 0.101; in test [1] (dose 2.00 uM), 0.097; in test [1] (dose 10.00 uM) it was −0.089. The “Z.LYZ.NS (standard z score)” value in test [1] (dose 0.08 uM) was 0.035; in test [1] (dose 0.40 uM) it was 0.880; in test [1] (dose 2.00 uM), 0.847; in test [1] (dose 10.00 uM), −0.777. Besides, the “Dose.FC.LYZ.S (log2 fold change)” value is recorded as −0.047 in test [2] (dose 0.08 uM), 0.043 in test [2] (dose 0.40 uM), 0.083 in test [2] (dose 2.00 uM) and −0.128 in test [2] (dose 10.00 uM). Further, the “Dose.FC.CTG (log2 fold change)” value in the test on ENR+CD organoids (dose 0.08 uM) is −0.007; in the test with ENR+CD organoids (dose 0.40 uM), 0.117; with ENR+CD organoids (dose 2.00 uM) it was 0.076; with ENR+CD organoids (dose 10.00 uM) it was −0.480.
